This passage reports IC50 results from patent US20090105282A1, “METHODS OF TREATING BENIGN PROSTATIC HYPERPLASIA OR LOWER URINARY TRACT SYMPTOMS BY USING PDE 5 INHIBITORS” (Schering-Plough Corporation, priority 2005, published 2009).

This assay concerns the target PDE 5 (Homo sapiens, UniProt O76074). Briefly: PDE 5 enzyme inhibition (PDE 5 IC50). The format is biochemical.

Each structure is given as a SMILES string. Bounds are passed on as bounds.

Turning to `Cn1c(=O)c2c(nc(NC3CCCCC3)n2Cc2ccc(O)cc2)n(C)c1=O` [Compound 37], the IC50 lay in the range of 5 to 10 nM.

`COc1ccc(Cn2c(NC3CC4CCC3C4)nc3c2c(=O)n(C)c(=O)n3C)cc1` (stereo not drawn) [Compound 77]: the half-inhibitory concentration (IC50) lay within 15 to 100 nM.

Regarding `CCn1c(=O)c2c(nc(NC3CCCC3)n2Cc2ccc(O)cc2)n(C)c1=O` [Compound 79], the IC50 fell in the range of 5 to 10 nM.

Consider `CCn1c(=O)c2c(nc(NC3CCCCC3)n2Cc2ccc(OC)cc2)n(CCO)c1=O` [Compound 103], for which the IC50 is at most 5 nM.

Molecule `CCn1c(=O)c2c(nc(NC3CCCCC3)n2Cc2ccc(O)cc2)n(CCO)c1=O` [Compound 104] showed an IC50 of at most 5 nM.

The molecule `CCn1c(=O)c2c(nc(NC3CCCCC3)n2Cc2ccc(OC)c(Cl)c2)n(CCO)c1=O` [Compound 105] gave an IC50 of at most 5 nM.

In turn, `CCn1c(=O)c2c(nc(N[C@@H]3CCC[C@H]3O)n2Cc2ccc(OC)c(Cl)c2)n(CCO)c1=O` [Compound 106] yielded an IC50 of at most 5 nM.

Molecule `CCn1c(=O)c2c(nc(NC3CCCCC3)n2Cc2ccc(O)c(Cl)c2)n(CCO)c1=O` [Compound 107] registered an IC50 of at most 5 nM.

In turn, `CCn1c(=O)c2c(nc(NC3CCCCC3)n2Cc2ccc(O)c(Br)c2)n(CCO)c1=O` [Compound 116] showed an IC50 of at most 5 nM.

In turn, `CCn1c(=O)c2c(nc(NC3CCCCC3)n2Cc2ccc(OC)c(Br)c2)n(CCO)c1=O` [Compound 117] yielded an IC50 of at most 5 nM.

For the molecule `CCn1c(=O)c2c(nc(N[C@@H]3CCC[C@H]3O)n2Cc2ccc(O)c(Br)c2)n(CCO)c1=O` [Compound 118], the IC50 was at most 5 nM.

Regarding `CCn1c(=O)c2c(nc(NC3CCCCC3)n2Cc2ccc(S(N)(=O)=O)cc2)n(CC)c1=O` [Compound 119], the IC50 was at most 5 nM.

The molecule `CCn1c(=O)c2c(nc(NC3CCCCC3)n2Cc2ccc(OC)c(Br)c2)n(CC)c1=O` [Compound 122] came in with an IC50 of at most 5 nM.

`CCn1c(=O)c2c(nc(N[C@@H]3CCC[C@H]3O)n2Cc2ccc(OC)c(Br)c2)n(CC)c1=O` [Compound 123]: the IC50 was at most 5 nM.

`CCn1c(=O)c2c(nc(N[C@@H]3CCCC[C@@H]3O)n2Cc2ccc(OC)c(Br)c2)n(CC)c1=O` [Compound 124]: the IC50 was at most 5 nM.

Molecule `Cn1c(=O)c2c(nc(NC3CCCCC3)n2Cc2cccc(O)c2)n(C)c1=O` [Compound 146] yielded an IC50 of 15 to 100 nM.

Regarding `Cc1cc(Cn2c(NC3CCCCC3)nc3c2c(=O)n(C)c(=O)n3C)ccc1O` [Compound 147], the concentration for half-maximal inhibition (IC50) fell in the range of 15 to 100 nM.

The molecule `Cn1c(=O)c2c(nc(NC3CCCCC3)n2Cc2ccccc2Cl)n(C)c1=O` [Compound 148] came in with an IC50 of 15 to 100 nM.

`CCn1c(=O)c2c(nc(NC3CCCCC3)n2Cc2ccc3c(c2)OCO3)n(CC)c1=O` [Compound 168] showed an IC50 of at most 5 nM.

`CCn1c(=O)c2c(nc(NC3CCCCC3)n2Cc2ccc(O)c(C)c2)n(CC)c1=O` [Compound 169] showed an IC50 of at most 5 nM.

In turn, `CCn1c(=O)c2c(nc(NC3CCCCC3)n2Cc2cccc(O)c2)n(CC)c1=O` [Compound 170] had an IC50 of at most 5 nM.

Take `CCn1c(=O)c2c(nc(NC3CCOCC3)n2Cc2ccc(OC)c(Br)c2)n(CCO)c1=O` [Compound 186]: the IC50 was at most 5 nM.

`CCN(CC)CCn1c(=O)n(CC)c(=O)c2c1nc(NC1CCCCC1)n2Cc1ccc(OC)c(Br)c1` [Compound 187] gave an IC50 of at most 5 nM.

Take `CCn1c(=O)c2c(nc(NC3CCOCC3)n2Cc2ccc(S(N)(=O)=O)cc2)n(CC)c1=O` [Compound 188]: the IC50 is at most 5 nM.
